Results taken from patent US20150158845A1, “5-HALOGEN-SUBSTITUTED OXINDOLE DERIVATIVES AND USE THEREOF FOR TREATING VASOPRESSIN-DEPENDENT DISEASES” (ABBVIE DEUTSCHLAND GMBH & CO. KG, priority 2007, published 2015).

Tests used:
[1] = molecular target: T1, human vasopressin V1b receptor (Homo sapiens, UniProt P47901); test: Vasopressin V1b receptor binding assay; conditions: membranes from CHO-K1 cells with human V1b receptor, 1.5 nM 3H-AVP
T1 construct: expressed in transfected cells; host or cells: CHO-K1 (clone 3H2; cell line hV1b-3H2_CHO), membrane preparation
T1 sequence (P47901 1-424): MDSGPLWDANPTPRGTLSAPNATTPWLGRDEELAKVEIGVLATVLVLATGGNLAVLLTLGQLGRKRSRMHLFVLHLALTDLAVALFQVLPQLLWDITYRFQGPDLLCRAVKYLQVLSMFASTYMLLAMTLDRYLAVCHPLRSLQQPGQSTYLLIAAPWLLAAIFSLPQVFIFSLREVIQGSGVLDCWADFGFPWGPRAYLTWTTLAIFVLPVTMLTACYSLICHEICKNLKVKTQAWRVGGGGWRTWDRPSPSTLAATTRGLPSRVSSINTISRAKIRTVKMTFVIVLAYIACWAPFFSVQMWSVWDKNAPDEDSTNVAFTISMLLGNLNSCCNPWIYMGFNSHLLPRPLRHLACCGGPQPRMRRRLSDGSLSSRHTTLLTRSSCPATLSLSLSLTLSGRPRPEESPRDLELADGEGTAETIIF
Procedure: 1. Vasopressin V1b Receptor Binding Assay:
The substance concentration was further diluted 1:5 in the assay mixture (2% DMSO in the mixture).
The nonspecific binding was determined with 1 M AVP (Bachem # H1780). All determinations were carried out as triplicate determinations.

[2] = Determination of the microsomal half-life / microsomal clearance; assay type: in vitro ADME; conditions: human liver microsomes, 0.5 μM test substance, 0.25 mg microsomal protein/ml
Procedure: 5. Determination of the Microsomal Half-Life:
The metabolic stability of the compounds of the invention was determined in the following assay.
The test substances were incubated in a concentration of 0.5 μM as follows: 0.5 μM test substance are preincubated together with liver microsomes from different species (from rat, human or other species) (0.25 mg of microsomal protein/ml) in 0.05 M potassium phosphate buffer of pH 7.4 in microtiter plates at 37° C. for 5 min. The reaction is started by adding NADPH (1 mg/mL). After 0, 5, 10, 15, 20 and 30 min, 50 μl aliquots are removed, and the reaction is immediately stopped and cooled with the same volume of acetonitrile. The samples are frozen until analyzed. The remaining concentration of undegraded test substance is determined by MSMS. The half-life (T½) is determined from the gradient of the signal of test substance/unit time plot, it being possible to calculate the half-life of the test substance, assuming first order kinetics, from the decrease in the concentration of the compound with time. The microsomal clearance (mCl) is calculated from mCl=In2/T½/(content of microsomal protein in mg/ml)×1000 […] (modified from references: Di, The Society for Biomoleculur Screening, 2003, 453-462; Obach, DMD, 1999 vol 27. N 11, 1350-1359).

[3] = molecular target: human vasopressin V1a receptor (Homo sapiens, UniProt P37288); test: Vasopressin V1a receptor binding assay; conditions: selectivity: quotient of Ki at human V1a and Ki at human V1b
human vasopressin V1a receptor, sequence (P37288 whole entry): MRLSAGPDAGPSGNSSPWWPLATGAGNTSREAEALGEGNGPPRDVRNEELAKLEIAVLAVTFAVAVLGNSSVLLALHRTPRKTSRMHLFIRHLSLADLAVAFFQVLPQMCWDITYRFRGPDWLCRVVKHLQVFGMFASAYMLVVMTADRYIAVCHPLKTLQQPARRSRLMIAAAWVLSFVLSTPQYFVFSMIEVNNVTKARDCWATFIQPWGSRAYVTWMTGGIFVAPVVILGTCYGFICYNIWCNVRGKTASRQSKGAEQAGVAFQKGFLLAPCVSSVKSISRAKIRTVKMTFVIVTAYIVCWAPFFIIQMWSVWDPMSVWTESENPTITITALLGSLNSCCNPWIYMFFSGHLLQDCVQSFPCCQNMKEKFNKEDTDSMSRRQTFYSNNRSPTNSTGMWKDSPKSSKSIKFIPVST

CCOc1ncc(C)cc1C1(NC(=O)N2CCN(C3CCN(C)CC3)CC2)C(=O)N(S(=O)(=O)c2ccc(OC)cc2OC)c2ccc(Cl)cc21.O=C(O)C(F)(F)F (racemic) [Example 14, (±)-4-(1-Methylpiperidin-4-yl)piperazine-1-[5-chloro-1-(2,4-dimethoxyphenylsulfonyl)-3-(2-ethoxy-5-methylpyridin-3-yl)-2-oxo-2,3-dihydro-1H-indol-3-yl]carboxamide, trifluoroacetic acid salt]
Ki [1]: < 1 nM
Human microsomal clearance [2]: ++ (50-75 μl min^−1 mg^−1)
Ki(h-V1a)/Ki(h-V1b) [3]: +++ (>75)
